Assay results reported in patent US20110311990A1, “TETRANOR-PGEM/PGAM SPECIFIC IMMUNOGENS, ANTIBODIES, TRACERS, ASSAY KITS AND METHODS FOR MAKING SAME” (Cayman Chemical Company, Incorporated, priority 2010, published 2011).

Columns and labels:
[1] = test system: tetranor-PGEM EIA Antiserum; experiment: Cross-reactivity testing of tetranor-PGEM antibody (polyclonal antiserum) by competitive EIA; type: binding, rabbit; details: for Cross-reactivity (% XR): Specificity of the tetranor-PGEM EIA Antiserum, Example 4 kit performance characteristics; for % XR: percent cross-reactivity = IC50 of tetranor-PGEM / IC50 of test compound x 100, Example 2, antiserum raised with tetranor-PGEM-KLH immunogen
Procedure: (§1) Rabbit immunizations were performed by Robert Sargeant Antibodies (655 Ash Street, Ramona, Calif. 92065) as follows: Male New Zealand White Rabbits 9-10 weeks of age, were immunized with Complete Freund's Adjuvant (CFA) initially, followed by Incomplete Freund's Adjuvant (IFA) for all subsequent injections. Immunogen 1 (200 μg; prepared in Step A, Procedure 1 of this Example; alternatively, Immunogen 1 A, which was prepared in Step A, Procedure 1A of this Example, has been used to produce antiserum according to this immunization method) was injected for the first immunization and 100 μg for boosts. The immunogen was diluted to one milliliter with sterile saline and combined with one milliliter of the appropriate adjuvant. The antigen and adjuvant were mixed thoroughly to form a stable emulsion which is injected subcutaneously. Blood was collected from the central ear artery and allowed to clot and retract. The serum was decanted and clarified by centrifugation before freezing.
(§2) Antisera (AS) from multiple bleeds from multiple rabbits were screened by titration on a 96-well microplate with detection of specific Ab based on its ability to bind the tetranor-PGEM-AChE conjugate (diluted 1:1000). The next screen consisted of a sensitivity screen selecting for AS with a suitable detection limit. The next screen excluded AS with unacceptably high cross-reactivity (experiment described below) with parent metabolites, tetranor-PGFM, and tetranor-PGDM. The final screen consisted of urinary measurements to confirm normal biological levels of tetranor-PGEM, and recovery experiments.
(§3) To determine cross-reactivity of an antibody, set up the standard curve using optimal tracer and Ab dilutions according the kit instructions. Tetranor-PGEM was diluted to 10 ng/ml for the first point in the standard curve and diluted 2.5-fold serially 7 times. First standard dilutions (10 μg/ml) of tetranor-PGDM, tetranor-PGJM, tetranor-PGAM, and tetranor-PGFM were prepared and 7 additional 6-fold serial dilutions were performed. IC50s of all compounds were determined and each percent cross-reactivity (% XR) values of the potentially cross-reactive compounds was determined by dividing the IC50 of tetranor-PGEM by the IC50 of the test compound and multiplying by 100. See the chart below for determined % XR values.

tetranor-PGAM antibody = experiment: Cross-reactivity testing of tetranor-PGAM antibody (polyclonal antiserum) by competitive EIA; type: binding, rabbit; details: percent cross-reactivity = IC50 of tetranor-PGAM / IC50 of test compound x 100; Example 3, antiserum raised with tetranor-PGAM-KLH immunogen
Procedure: as §1, with “Immunogen 3” for “Immunogen 1”, “prepared according to” for “prepared in”, “Step A” for “Step A, Procedure 1”, “this Example)” for “this Example; alternatively, Immunogen 1 A, which was prepared in Step A, Procedure 1A of this Example, has been used to produce antiserum according to this immunization method)”
as §2, with “tetranor-PGAM-AChE” for “tetranor-PGEM-AChE”, “(Tracer 4, diluted” for “(diluted”, “tetranor-PGAM,” for “tetranor-PGEM,”, “experiments. Only one AS passed all screens.” for “experiments.”
as §3, with “Tetranor-PGAM” for “Tetranor-PGEM”, “tetranor-PGEM,” for “tetranor-PGJM, tetranor-PGAM,”, “tetranor-PGAM” for “tetranor-PGEM”

[2] = humans; cited from earlier work

Row | SMILES | Cross-reactivity (% XR) [1] | % XR [1] | % XR (tetranor-PGAM antibody) | infused dose of PGE2 that appears as tetranor-PGEM in the urine [2]
1 | O=C(O)CCCCC(=O)CC[C@H]1C=CC(=O)[C@@H]1CCC(=O)O [tetranor-PGAM] | 2,034% | 2,034% | 100% | 
2 | CCCCC[C@H](O)/C=C/[C@H]1[C@H](O)CC(=O)[C@@H]1C/C=C\CCCC(=O)O [PGE2] |  |  |  | About 15%
3 | O=C(O)CCCCC(=O)CC[C@H]1C(=O)C=C[C@@H]1CCC(=O)O [tetranor-PGJM] | 27.4% | 27.4% |  | 
4 | O=C(O)CCCCC(=O)CC[C@H]1C(=O)C[C@H](O)[C@@H]1CCC(=O)O [tetranor-PGDM] | 1.5% | 1.5% | 5.3% | 
5 | O=C(O)CCCCC(=O)CC[C@@H]1[C@@H](CCC(=O)O)[C@@H](O)C[C@H]1O [tetranor-PGFM] | 7.8% | 7.8% | 1.0% | 
6 | O=C(O)CCCCC(=O)CC[C@H]1[C@H](O)CC(=O)[C@@H]1CCC(=O)O [tetranor-PGEM, 11α-hydroxy-9,15-dioxo-13,14-dihydro-2,3,4,5-tetranor-prostan-1,20-dioic acid] | 100% | 100% | 25.1% | 
